The record followed here is patent US20150044211A1, “COMBINATION OF A 6-OXO-1,6-DIHYDRO-PYRIDAZINE DERIVATIVE HAVING ANTI-CANCER ACTIVITY WITH OTHER ANTI-TUMOR COMPOUNDS” (MERCK PATENT GMBH, priority 2012, published 2015).

The subject of data set [1] is human NCI-H441 NSCLC tumor cells. To be noted: female CD-1 nude mice; for T/C: end of treatment (18 days), compound 100 mg/kg orally 5 days on 2 days off, erlotinib 40 then 30 mg/kg (MTD).
Protocol: (§1) Method: Female CD-1 nude mice (6-8 week old) where subcutaneously injected with human NCI-H441 NSCLC tumor cells and were divided into 4 groups (ten animals in one group) after the tumors were established. Respective groups were administered orally with the 3-(1-{3-[5-(1-Methyl-piperidin-4-ylmethoxy)-pyrimidin-2-yl]-benzyl}-6-oxo-1,6-dihydro-pyridazin-3-yl)-benzonitrile hydrochloride hydrate (100 mg/kg—5 days on and 2 days off) or with erlotinib (initial 40 mg/kg followed by 30 mg/kg (MTD)-4 days on and 4 days off followed by 3 days on and 4 days off) alone or both drugs simultaneously for 18 days. […] Statistical calculation has been done at day 7, the day with most body weight difference in erlotinib monotherapy versus combination groups.
Data set [2] can be described thus: Body weight change / tolerability in the NCI-H441 xenograft study. To be noted: Day 7.
Protocol: as §1
Data set [3] has as its system human H1975 NSCLC tumor cells. Briefly: H1975 NSCLC xenograft, combination with cetuximab. Type of data set: in vivo. To be noted: single agent 100 mg/kg orally daily for three weeks; CD-1 nude mice.
Description: Method: Female CD-1 nude mice (6-8 week old) where subcutaneously injected with human H1975 NSCLC tumor cells and were divided into 4 groups (nine animals in one group) after the tumors were established.
In data set [4] the test system is luciferase-transfected human EBC-1 NSCLC tumor cells. Nature of the data set: EBC-1 NSCLC xenograft (luciferase-transfected), combination with B20.4-1. Type of data set: in vivo. An excerpt:
Formation of lung metastases was reduced and could be only detected at the end of treatment in 3/10 mice. B20.4-1 was active with a T/C of 19% and lung metastases in 4/10 mice could be detected at the end of treatment. […] Detectable formation of lung metastases could be suppressed in 10/10 mice.

For the compound `C#Cc1cccc(Nc2ncnc3cc(OCCOC)c(OCCOC)cc23)c1` [erlotinib, reference compound], the T/C in data set [1] is on record as 82%. In data set [2] (versus Vehicle), the “Dunn's Multiple Comparison Test, Difference in rank sum (body weight change %)” value is 6.333; the “Dunn's Multiple Comparison Test, Significant? P < 0.05? (body weight change %)” value was “no”; the “Dunn's Multiple Comparison Test, Summary (body weight change %)” value is reported as “ns”.
In the case of `CN1CCC(COc2cnc(-c3cccc(Cn4nc(-c5cccc(C#N)c5)ccc4=O)c3)nc2)CC1.Cl.O` [“A”, 3-(1-{3-[5-(1-Methyl-piperidin-4-ylmethoxy)-pyrimidin-2-yl]-benzyl}-6-oxo-1,6-dihydro-pyridazin-3-yl)-benzonitrile hydrochloride hydrate], the “anti-tumor activity (in words)” value in data set [3] is “inactive”. Further, the partial regression in data set [4] (SCID hairless mice, 20 days of treatment) is 1/10. In addition, in data set [4] (SCID hairless mice, 20 days, ex vivo lung images), the “lung metastases detected at the end of treatment” value was 3/10. Besides, the T/C in data set [4] (end of treatment (20 days), female SCID hairless mice, compound 10 mg/kg orally daily, B20.4-1 20 mg/kg intraperitoneally biweekly) is on record as −20%. Besides, the T/C in data set [1] is 20%. Further, the “tumor growth delay (TGD)” value in data set [1] (compound 100 mg/kg, erlotinib 40 then 30 mg/kg, 18 days) came to 16 days. For the same compound, in data set [2] (versus Vehicle), the “Dunn's Multiple Comparison Test, Difference in rank sum (body weight change %)” value turned out to be 2.000; the “Dunn's Multiple Comparison Test, Significant? P < 0.05? (body weight change %)” value is listed as “no”; the “Dunn's Multiple Comparison Test, Summary (body weight change %)” value is reported as “ns”. Also, in data set [2] (versus erlotinib 30 mg/kg), the “Dunn's Multiple Comparison Test, Difference in rank sum (body weight change %)” value is recorded as −4.333; the “Dunn's Multiple Comparison Test, Significant? P < 0.05? (body weight change %)” value is “no”; the “Dunn's Multiple Comparison Test, Summary (body weight change %)” value was “ns”.
